# Test results as given in the NIST ThermoML archive (doi:10.1016/j.jct.2016.03.038).
# ± gives the expanded uncertainty stated by the source.
# Assay: mn = molality of the nth substance listed, in mol/kg
# Conditions: Liquid, isochoric method
smiles,measurement,setting,value
C [methane] + CCCCCC,mass density,"273.1 K, 2850 kPa, m1 = 2.157",655 ± 9 kg/m3
same,mass density,"273.1 K, 3620 kPa, m1 = 2.812",648 ± 9 kg/m3
same,mass density,"273.1 K, 4700 kPa, m1 = 3.805",638 ± 9 kg/m3
same,mass density,"273.1 K, 5670 kPa, m1 = 4.686",628 ± 9 kg/m3
same,mass density,"273.1 K, 6920 kPa, m1 = 6.031",616 ± 9 kg/m3
same,mass density,"273.1 K, 7900 kPa, m1 = 7.195",604 ± 9 kg/m3
same,mass density,"273.1 K, 9190 kPa, m1 = 8.724",596 ± 9 kg/m3
same,mass density,"283.15 K, 2500 kPa, m1 = 1.717",650 ± 9 kg/m3
same,mass density,"283.15 K, 3570 kPa, m1 = 2.568",640 ± 10 kg/m3
same,mass density,"283.15 K, 4740 kPa, m1 = 3.533",632 ± 12 kg/m3
same,mass density,"283.15 K, 5840 kPa, m1 = 4.499",620 ± 11 kg/m3
same,mass density,"283.15 K, 7010 kPa, m1 = 5.615",610 ± 9 kg/m3
same,mass density,"283.15 K, 8560 kPa, m1 = 7.345",594 ± 9 kg/m3
same,mass density,"293.15 K, 2360 kPa, m1 = 1.513",643 ± 9 kg/m3
same,mass density,"293.15 K, 3340 kPa, m1 = 2.229",635 ± 9 kg/m3
same,mass density,"293.15 K, 4410 kPa, m1 = 3.042",627 ± 11 kg/m3
same,mass density,"293.15 K, 5620 kPa, m1 = 4.008",615 ± 9 kg/m3
same,mass density,"293.15 K, 6860 kPa, m1 = 5.098",604 ± 9 kg/m3
same,mass density,"293.15 K, 8400 kPa, m1 = 6.638",590 ± 9 kg/m3
